Assay in all cases: Cytotoxicity assay of camptothecin derivative toxins (Example A)
Holding throughout (type): cell-based

The test system of assay [1] is human ovarian cancer cell line SK-OV-3. Conditions: for IC50: 3 days incubation, Cell Titer Turbo 2.0 luminescent cell viability; for tumor cell killing activity: in words, overall statement on Table 2 tumor cells, compared with SN-38 and Dxd. How it is done:
(§1) Tumor cells (human ovarian cancer cell line SK-OV-3; human colon cancer cell line HCT116; human lung adenocarcinoma cell line A549) in logarithmic growth phase were digested and adjusted to a density of approximately 3×10^4 cells/mL. The cells were plated on a white-walled 96-well plate at approximately 100 μL/well. The camptothecin derivative toxins of the Examples of the present application were serially diluted with the corresponding cell culture medium, and then mixed with the cells for incubation at 37° C. in a 5% CO2 incubator for 3 days. The growth inhibitory effect of the camptothecin derivative toxins on tumor cells was assessed by the Cell Titer Turbo 2.0 Luminescent Cell Viability Assay (Damas life, RA-GL11). Relative light unit (RLU) values were read from the cell culture plate using a microplate reader. Experimental data were analyzed using GraphPad Prism 8.0 software to calculate IC50 values. The above experiment was repeated using the following compounds as positive controls: […]

The subject of assay [2] is human lung adenocarcinoma cell line A549. Conditions: 3 days incubation, Cell Titer Turbo 2.0 luminescent cell viability. How it is done: as §1
Assay [3] concerns human colon cancer cell line HCT116. The note with it: 3 days incubation, Cell Titer Turbo 2.0 luminescent cell viability. How it is done: as §1

In the case of `CC[C@@]1(O)C(=O)OCc2c1cc1n(c2=O)Cc2c-1nc1cc(F)c(C)c3c1c2[C@@H](NC(=O)CO)CC3` [DXD, Dxd, reference compound], the IC50 in assay [1] turned out to be 41.4 nM; in assay [2] it was 413 nM; in assay [3], 49.3 nM.

On to `CC[C@@]1(O)C(=O)OCc2c1cc1n(c2=O)Cc2cc3cc4c(cc3nc2-1)OCO4` [STI-E-05, (S)-7-ethyl-7-hydroxy-10,13-dihydro-11H-[1,3]dioxolo[4,5-g]pyrano[3′,4′:6,7]indolizino[1,2-b]quinoline-8,11(7H)-dione], for which the IC50 in assay [1] (Homo sapiens, SK-OV-3, 72 h) came out at 12.7 nM; in assay [2] (Homo sapiens, A549, 72 h), 70.3 nM; in assay [3] (Homo sapiens, HCT-116, 72 h), 32.9 nM. The “tumor cell killing activity” value in assay [1] was “comparable to that of SN-38 and Dxd”.

With `CCc1c2c(nc3ccc(O)cc13)-c1cc3c(c(=O)n1C2)COC(=O)[C@]3(O)CC` [SN-38, reference compound], the IC50 came to 30.9 nM in assay [1] (Homo sapiens, SK-OV-3, 72 h); 523 nM in assay [2] (Homo sapiens, A549, 72 h); 60.5 nM in assay [3] (Homo sapiens, HCT-116, 72 h).

Turning to `CCCCCNc1c2c(nc3cc(F)c(C)cc13)-c1cc3c(c(=O)n1C2)COC(=O)[C@]3(O)CC` [STI-F-13], the “tumor cell killing activity” value in assay [1] is “significantly superior to that of SN-38 and Dxd”.

For `CC[C@@]1(O)C(=O)OCc2c1cc1n(c2=O)Cc2c-1nc1cc(F)c(C)cc1c2N` [STI-F-03C-1, (S)-4-ethyl-4-hydroxy-8-fluoro-9-methyl-11-amino-1,12-dihydro-14H-pyrano[3′,4′:6,7]indolizino[1,2-b]quinoline-3,14(4H)-dione], the IC50 in assay [1] (Homo sapiens, SK-OV-3, 72 h) was 19.9 nM; in assay [2] (Homo sapiens, A549, 72 h) it was 1080 nM; in assay [3] (Homo sapiens, HCT-116, 72 h), 38.2 nM. The “tumor cell killing activity” value in assay [1] was “comparable to that of SN-38 and Dxd”.

`CC[C@@]1(O)C(=O)OCc2c1cc1n(c2=O)Cc2c-1nc1cc(F)c(C)cc1c2CNCC1CCCC1` [STI-A2, (S)-4-ethyl-4-hydroxy-8-fluoro-9-methyl-11-(((cyclopentylmethyl)amino)methyl)-1,12-dihydro-14H-pyrano[3′,4′:6,7]indolizino[1,2-b]quinoline-3,14(4H)-dione]: the IC50 was found to be 30.8 nM in assay [1] (Homo sapiens, SK-OV-3, 72 h); 107 nM in assay [2] (Homo sapiens, A549, 72 h); 52.5 nM in assay [3] (Homo sapiens, HCT-116, 72 h). For the same molecule, the “tumor cell killing activity” value in assay [1] was “comparable to that of SN-38 and Dxd”.

For `CC[C@@]1(O)C(=O)OCc2c1cc1n(c2=O)Cc2c-1nc1cc(F)c(C)cc1c2C(=O)O` [STI-F-01, (S)-4-ethyl-8-fluoro-4-hydroxy-9-methyl-3,14-dioxo-3,4,12,14-tetrahydro-1H-pyrano[3′,4′:6,7]indolizino[1,2-b]quinoline-11-carboxylic acid], the IC50 in assay [1] (Homo sapiens, SK-OV-3, 72 h) is 131 nM; in assay [2] (Homo sapiens, A549, 72 h), 1050 nM; in assay [3] (Homo sapiens, HCT-116, 72 h), 322 nM.

In turn, `CC[C@@]1(O)C(=O)OCc2c1cc1n(c2=O)Cc2c-1nc1cc(F)c(C)cc1c2NCCCCO` [STI-F6, (S)-4-ethyl-8-fluoro-4-hydroxy-9-methyl-11-((4-hydroxybutyl)amino)-1,12-dihydro-14H-pyrano[3′,4′:6,7]indolizino[1,2-b]quinoline-3,14(4H)-dione] returned an IC50 in assay [1] (Homo sapiens, SK-OV-3, 72 h) of 2.65 nM. In assay [1], the “tumor cell killing activity” value was “significantly superior to that of SN-38 and Dxd”.

Take `CC[C@@]1(O)C(=O)OCc2c1cc1n(c2=O)Cc2c-1nc1cc(F)c(C)cc1c2CNCC(C)(C)C` [STI-A, (S)-4-ethyl-4-hydroxy-8-fluoro-9-methyl-11-((neopentylamino)methyl)-1,12-dihydro-14H-pyrano[3′,4′:6,7]indolizino[1,2-b]quinoline-3,14(4H)-dione]: the IC50 in assay [1] (Homo sapiens, SK-OV-3, 72 h) is 29.3 nM; in assay [2] (Homo sapiens, A549, 72 h), 115 nM; in assay [3] (Homo sapiens, HCT-116, 72 h), 39.9 nM. In addition, the “tumor cell killing activity” value in assay [1] is “comparable to that of SN-38 and Dxd”.

In assay [1] (Homo sapiens, SK-OV-3, 72 h), `CCCCCNc1c2c(nc3cc(F)c(C)cc13)-c1cc3c(c(=O)n1C2)COC(=O)[C@]3(O)CC` [STI-F13, (S)-4-ethyl-8-fluoro-4-hydroxy-9-methyl-11-(pentylamino)-1,12-dihydro-14H-pyrano[3′,4′:6,7]indolizino[1,2-b]quinoline-3,14(4H)-dione] registered an IC50 of 2.37 nM.

With `CC[C@@]1(O)C(=O)OCc2c1cc1n(c2=O)Cc2c-1nc1cc(F)c(C)cc1c2NCCCCN` [STI-F7, (S)-11-((4-aminobutyl)amino)-4-ethyl-8-fluoro-4-hydroxy-9-methyl-1,12-dihydro-14H-pyrano[3′,4′:6,7]indolizino[1,2-b]quinoline-3,14(4H)-dione], half-maximal inhibition in assay [1] (Homo sapiens, SK-OV-3, 72 h) (IC50) was put at 285 nM.

Take `CC[C@@]1(O)C(=O)OCc2c1cc1n(c2=O)Cc2cc3cc(C)c(F)cc3nc2-1` [STI-F-8, (S)-4-ethyl-4-hydroxy-8-fluoro-9-methyl-1,12-dihydro-14H-pyrano[3′,4′:6,7]indolizino[1,2-b]quinoline-3,14(4H)-dione]: the 50% inhibitory concentration (IC50) was found to be 12.4 nM in assay [1] (Homo sapiens, SK-OV-3, 72 h); 52.8 nM in assay [2] (Homo sapiens, A549, 72 h); 26.6 nM in assay [3] (Homo sapiens, HCT-116, 72 h). Further, in assay [1], the “tumor cell killing activity” value was “comparable to that of SN-38 and Dxd”.

`CC[C@@]1(O)C(=O)OCc2c1cc1n(c2=O)Cc2c-1nc1cc(F)c(C)cc1c2NC(=O)C(O)C1CC1` (stereo partly drawn) [STI-F, 2-cyclopropyl-N—((S)-4-ethyl-8-fluoro-4-hydroxy-9-methyl-3,14-dioxo-3,4,12,14-tetrahydro-1H-pyrano[3′,4′:6,7]indolizino[1,2-b]quinolin-11-yl)-2-hydroxyacetamide] yielded an IC50 in assay [1] (Homo sapiens, SK-OV-3, 72 h) of 45.5 nM. For the same molecule, the “tumor cell killing activity” value in assay [1] was “comparable to that of SN-38 and Dxd”.

Turning to `CCCSCc1c2c(nc3cc(F)c(Br)cc13)-c1cc3c(c(=O)n1C2)COC(=O)[C@]3(O)CC` [STI-G2-06C, (S)-9-bromo-4-ethyl-8-fluoro-4-hydroxy-11-((propylthio)methyl)-1,12-dihydro-14H-pyrano[3′,4′:6,7]indolizino[1,2-b]quinoline-3,14(4H)-dione], the IC50 in assay [1] (Homo sapiens, SK-OV-3, 72 h) worked out at 57.8 nM; in assay [2] (Homo sapiens, A549, 72 h), 216 nM; in assay [3] (Homo sapiens, HCT-116, 72 h) it was 81.3 nM. The “tumor cell killing activity” value in assay [1] was “comparable to that of SN-38 and Dxd”.

For the molecule `CC[C@@]1(O)C(=O)OCc2c1cc1n(c2=O)Cc2c-1nc1cc(F)c(C)cc1c2NC(=O)CO` [STI-F2, (S)—N-(4-ethyl-4-hydroxy-8-fluoro-9-methyl-3,14-dioxo-3,4,12,14-tetrahydro-1H-pyrano[3′,4′:6,7]indolizino[1,2-b]quinolin-11-yl)-2-hydroxyacetamide], the IC50 in assay [1] (Homo sapiens, SK-OV-3, 72 h) came to 317 nM; in assay [2] (Homo sapiens, A549, 72 h), 2370 nM; in assay [3] (Homo sapiens, HCT-116, 72 h), 945 nM.

Regarding `CCCCCc1c2c(nc3cc(F)c([N+](=O)[O-])cc13)-c1cc3c(c(=O)n1C2)COC(=O)[C@]3(O)CC` [STI-G03, (S)-4-ethyl-4-hydroxy-8-fluoro-9-nitro-11-pentyl-1,12-dihydro-14H-pyrano[3′,4′:6,7]indolizino[1,2-b]quinoline-3,14(4H)-dione], the IC50 amounted to 137 nM in assay [1] (Homo sapiens, SK-OV-3, 72 h); 322 nM in assay [2] (Homo sapiens, A549, 72 h); 268 nM in assay [3] (Homo sapiens, HCT-116, 72 h).

Take `CC[C@@]1(O)C(=O)OCc2c1cc1n(c2=O)Cc2c-1nc1cc(F)c(C)cc1c2CCl` [STI-A-4, (S)-4-ethyl-4-hydroxy-8-fluoro-9-methyl-11-(chloromethyl)-1,12-dihydro-14H-pyrano[3′,4′:6,7]indolizino[1,2-b]quinoline-3,14(4H)-dione]: the IC50 is 71.8 nM in assay [1] (Homo sapiens, SK-OV-3, 72 h); 757 nM in assay [2] (Homo sapiens, A549, 72 h); 222 nM in assay [3] (Homo sapiens, HCT-116, 72 h).

As to `CCCSCc1c2c(nc3cc(F)c(N)cc13)-c1cc3c(c(=O)n1C2)COC(=O)[C@]3(O)CC` [STI-G2, (S)-9-amino-4-ethyl-8-fluoro-4-hydroxy-11-((propylthio)methyl)-1,12-dihydro-14H-pyrano[3′,4′:6,7]indolizino[1,2-b]quinoline-3,14(4H)-dione], the IC50 in assay [1] (Homo sapiens, SK-OV-3, 72 h) was 2.19 nM; in assay [2] (Homo sapiens, A549, 72 h), 14.9 nM; in assay [3] (Homo sapiens, HCT-116, 72 h), 11 nM. Further, the “tumor cell killing activity” value in assay [1] was “significantly superior to that of SN-38 and Dxd”.

Consider `CC[C@@]1(O)C(=O)OCc2c1cc1n(c2=O)Cc2c-1nc1cc3c(cc1c2CCCCO)OCO3` [STI-E, (S)-7-ethyl-7-hydroxy-14-(4-hydroxybutyl)-10,13-dihydro-11H-[1,3]dioxolo[4,5-g]pyrano[3′,4′:6,7]indolizino[1,2-b]quinoline-8,11(7H)-dione], for which the concentration for half-maximal inhibition (IC50) in assay [1] (Homo sapiens, SK-OV-3, 72 h) is 403 nM; in assay [2] (Homo sapiens, A549, 72 h), 1060 nM; in assay [3] (Homo sapiens, HCT-116, 72 h), 1740 nM.

As to `CCCCCc1c2c(nc3cc(F)c(N)cc13)-c1cc3c(c(=O)n1C2)COC(=O)[C@]3(O)CC` [STI-G1, (S)-4-ethyl-4-hydroxy-8-fluoro-9-amino-11-pentyl-1,12-dihydro-14H-pyrano[3′,4′:6,7]indolizino[1,2-b]quinoline-3,14(4H)-dione], the IC50 was found to be 3.7 nM in assay [1] (Homo sapiens, SK-OV-3, 72 h); 9.52 nM in assay [2] (Homo sapiens, A549, 72 h); 11 nM in assay [3] (Homo sapiens, HCT-116, 72 h). Besides, the “tumor cell killing activity” value in assay [1] was “significantly superior to that of SN-38 and Dxd”.

In general, IC50 refers to the point on the concentration scale where inhibition reaches its midpoint.

The values are drawn from US20260102507A1, “CAMPTOTHECIN DERIVATIVE FOR TREATING OR PREVENTING CANCER AND ANTIBODY-DRUG CONJUGATE THEREOF” (CHENGDU BRILLIANT PHARMACEUTICAL CO., LTD., priority 2023, published 2026).
